Key:
[1] = Therapeutic index, ratio of neurotoxicity in iv dosed Sprague-Dawley rat assessed as total amount of drug infused at the point that partial or complete convulsions are first observed to 20 times ED50 for antiarrhythmic activity in iv dosed Sprague-Dawley rat coronary artery occlusion model; type: organism-based; settings: in vivo; for selectivity ratio: Sprague-Dawley, read-out: TI
[2] = Neurotoxicity in iv dosed Sprague-Dawley rat assessed as total amount of drug infused at the point that partial or complete convulsions are first observed; type: toxicity, organism-based; settings: in vivo
[3] = Neurotoxicity in iv dosed Sprague-Dawley rat assessed as minimum infusion rate of the compound require for partial and complete convulsion; type: toxicity, organism-based; settings: in vivo
Rattus norvegicus = assay: Antiarrhythmic activity in iv dosed Sprague-Dawley rat coronary artery occlusion model administered via infusion for 5 mins starting 15 post surgery followed by coronary artery occlusion measured for 15 mins by electrocardiogram; type: functional
Canis familiaris = assay: Inhibition of atrial fibrillation in iv dosed Mongrel dog vagal-atrial fibrillation model administered via infusion pump over 5 mins by electrophysiological method; type: functional, Canis lupus familiaris

| SMILES | selectivity ratio [1] | other results |
| --- | --- | --- |
| O[C@@H]1CCN(C2CCCC[C@@H]2OCCc2cc3ccccc3o2)C1 (stereo partly drawn) | 3.3 | – |
| COc1ccc(CCCCO[C@H]2CCCCC2N2CCOCC2)cc1OC (stereo partly drawn) | 2.2 | – |
| COc1ccc(CCOC2CCCC[C@H]2N2CCN(C(=O)Cc3ccc(OC)c(OC)c3)CC2)cc1OC (stereo partly drawn) | 11.1 | – |
| Cl.OC1CCN(C2CCCC[C@@H]2OCCc2cccc3ccccc23)C1 (stereo partly drawn) | – | TI [1]: 4.3 |
| Cl.OC1CCN([C@@H]2CCCC[C@@H]2OCCc2cccc3ccccc23)C1 (stereo partly drawn) | – | TI [1]: 8.8 |
| COc1ccc(CCO[C@H]2CCCCC2N2CC[C@@H](OCc3ccccc3)C2)cc1OC (stereo partly drawn) | 2.6 | – |
| COc1ccc(CCO[C@H]2CCCCC2N2CC[C@H](OC(C)=O)C2)cc1OC (stereo partly drawn) | 2 | – |
| Clc1cccc(Cl)c1CCOC1CCCC[C@H]1N1CCSC1 (stereo partly drawn) | 2.5 | – |
| c1ccc2c(CCO[C@H]3CCCCC3N3CCOCC3)cccc2c1 (stereo partly drawn) | 4.7 | – |
| COc1ccc(CCO[C@@H]2CCCC[C@H]2N2CC[C@@H](OC(C)=O)C2)cc1OC | 1.8 | – |
| O=C1CCN(C2CCCC[C@@H]2OCC(c2ccccc2)c2ccccc2)C1 (stereo partly drawn) | 3.1 | – |
| Clc1ccc(CCO[C@H]2CCCCC2N2CCOCC2)cc1Cl (stereo partly drawn) | 3.9 | – |
| O=C1CCN(C2CCCC[C@@H]2OCCc2c(Cl)cccc2Cl)C1 (stereo partly drawn) | 8.6 | – |
| OC1CCN(C2CCCC[C@@H]2OCCc2ccccc2Br)C1 (stereo partly drawn) | 8.4 | – |
| Brc1ccc(CCO[C@H]2CCCCC2N2CCOCC2)cc1 (stereo partly drawn) | 2.2 | – |
| COc1ccc(CCOC2CCCC[C@H]2N2CCC(=O)C2)cc1OC (stereo partly drawn) | 2.6 | – |
| Clc1cccc(Cl)c1COC1CCCC[C@H]1N1CCOCC1 (stereo partly drawn) | 2.7 | – |
| CC(=O)OC1CCN([C@@H]2CCCCC2OCCc2cccc3ccccc23)C1 (stereo partly drawn) | 2.3 | – |
| OC1CCN(C2CCCC[C@@H]2OCCc2c(Cl)cccc2Cl)C1 (stereo partly drawn) | 5.4 | – |
| COc1ccc(CCO[C@H]2CCCCC2N2CCOCC2)cc1OC (stereo partly drawn) | – | TI [1]: 1.4 |

| SMILES | selectivity ratio [1] | other results |
| --- | --- | --- |
| c1ccc2c(CCO[C@H]3CCCCC3N3CCOCC3)csc2c1 (stereo partly drawn) | 3.3 | – |
| OC1CCN(C2CCCC[C@@H]2OCCn2ccc3ccccc32)C1 (stereo partly drawn) | 9.4 | – |
| Brc1ccccc1CCO[C@H]1CCCCC1N1CCOCC1 (stereo partly drawn) | 6.3 | – |
| O[C@@H]1CCN(C2CCCC[C@@H]2OCCc2ccccc2C(F)(F)F)C1 (stereo partly drawn) | 7.3 | – |
| COc1ccc(CCOC2CCCC[C@H]2N2CCC(F)C2)cc1OC (stereo partly drawn) | 2.3 | – |
| c1ccc2cc(CCO[C@H]3CCCCC3N3CCOCC3)ccc2c1 (stereo partly drawn) | 5.3 | – |
| c1ccc2cc(OCCO[C@H]3CCCCC3N3CCOCC3)ccc2c1 (stereo partly drawn) | 1.5 | – |
| Brc1ccc(OCCO[C@H]2CCCCC2N2CCOCC2)cc1 (stereo partly drawn) | 1.4 | – |
| COc1ccc(CCO[C@H]2CCCCC2N2CCC[C@@H]2CO)cc1OC (stereo partly drawn) | 8.9 | – |
| COc1ccc(CCO[C@H]2CCCCC2N2CCC3(C2)OCCO3)cc1OC (stereo partly drawn) | 2.9 | – |
| COc1cc(CCCO[C@H]2CCCCC2N2CC[C@@H](O)C2)cc(Cl)c1OC (stereo partly drawn) | 7.6 | – |
| c1cc(CCO[C@H]2CCCCC2N2CCOCC2)c2ccsc2c1 (stereo partly drawn) | 2.7 | – |
| COc1ccc(CCOC2CCCCC2N2CCCC2)cc1OC.Cl (stereo not drawn) | 0.9 to 4.4 | Activity [2]: 44.4 to 118 µmol/kg; Activity [3]: 8 to 21.3 µmol/kg/min; ED50 (Rattus norvegicus): 1.33 to 2.4 µmol/kg/min |
| O=C1CCN([C@@H]2CCCCC2OCc2c(Cl)cccc2Cl)C1 (stereo partly drawn) | 5.1 | – |
| COc1ccc(CCOC2CCCC[C@H]2N2CCOCC2)cc1OC.Cl (stereo partly drawn) | – | TI [1]: 3.8 |
| Brc1cccc(CCO[C@H]2CCCCC2N2CCOCC2)c1 (stereo partly drawn) | 3.3 | – |
| COc1ccc(CCO[C@H]2CCCCC2N2CC[C@H](OCc3ccccc3)C2)cc1OC.Cl (stereo partly drawn) | 3.8 | Activity [3]: 8 µmol/kg/min |
| FC(F)(F)c1ccccc1CCO[C@H]1CCCC[C@H]1N1CCOCC1 (racemic) | 3.6 | – |
| O=C(NCC1CCCCN1)c1cc(OCC(F)(F)F)ccc1OCC(F)(F)F (stereo not drawn) [FLECAINIDE] | – | ED (Canis familiaris): 1 to 10 µmol/kg |
